We go through 99 molecules from PubChem BioAssay AID1985 (Southern Research Specialized Biocontainment Screening …, 2009).

The assay has as its system S. Typhi PhoP-promoter GFP reporter, fluorescence, 4 h. In words: modified counter assay using GFP fluorescence, PhoP regulon inhibitor project, dose response (AID 1985).

For orientation: IC50 means the point on the concentration scale where inhibition reaches its midpoint. For `CNC[C@H](Cc1ccccc1)NC[C@@H](Cc1cccc2ccccc12)NCCc1ccc(C)cc1`, the IC50 was 19.6 µM.

Consider `O=C(Nc1nc(-c2ccccn2)cs1)c1ccc(Cl)s1`, for which the IC50 was 21.5 µM.

For the molecule `CNC[C@H](CC1CCCCC1)NC[C@H](Cc1ccccc1)NCCC12CC3CC(CC(C3)C1)C2`, the 50% inhibitory concentration (IC50) was 14.8 µM.

On to `COc1ccc(NC2=NC3(CCCCC3)N=C(N)N2)cc1`, for which the IC50 is 141 µM.

In the case of `OC(c1cc(C(F)(F)F)nc2c(C(F)(F)F)cccc12)C1CCCCN1` (centres undefined), the IC50 is 37.6 µM.

Consider `Cc1cc(C)n(-c2nc(SCCN(C)C)c3c4c(sc3n2)CCCC4)n1`, for which the IC50 was 80.1 µM.

For `Cc1ccc2nc(N(CCCN(C)C)C(=O)c3sc4ccccc4c3Cl)sc2c1`, the half-maximal inhibitory concentration (IC50) is 54.7 µM.

For the molecule `CS(=O)(=O)c1ccc2nc(NC(=O)c3ccc(Cl)nc3)sc2c1`, the IC50 is 81.9 µM.

In the case of `O=C(Nc1ccccc1)c1ccc2nsnc2c1`, the concentration for half-maximal inhibition (IC50) was under 0.23 µM.

Turning to `Cc1ccc2nc(NCc3ccccc3)[nH]c2c1`, the IC50 is 72.6 µM.

`CN1CCN(C2Cc3cc(F)ccc3Sc3ccc(Cl)cc32)CC1` (centres undefined): the concentration for half-maximal inhibition (IC50) is 74.4 µM.

Take `COc1c(N2CCNC(C)C2)c(F)cc2c(=O)c(C(=O)O)cn(C3CC3)c12` (centres undefined): the IC50 is under 0.23 µM.

Consider `COc1cccc(/C=N/NC(=O)CSCC(=O)Nc2ccccc2)c1O`, for which the half-inhibitory concentration (IC50) was 92.5 µM.

In the case of `O=C(CNC(=O)c1ccccc1)N/N=C/c1ccc([N+](=O)[O-])s1`, the concentration for half-maximal inhibition (IC50) was 19.5 µM.

Regarding `COc1cccc(Nc2cc(C)nc3ccccc23)c1`, the IC50 was 98.8 µM.

Consider `O=C(Nc1nnc(-c2ccco2)o1)c1cccc(Cl)c1`, for which the IC50 is 40 µM.

Take `O=S1(=O)Nc2c(ccc3cccnc23)-c2ccccc21`: the 50% inhibitory concentration (IC50) was 1.17 µM.

With `CN1C(=O)NC(c2ccc(O)cc2)C(C(=O)c2cccs2)C1(O)C(F)(F)F` (centres undefined), the IC50 is 19.9 µM.

Turning to `CCc1cccc2c1Sc1ccccc1CC2N1CCNCC1` (centres undefined), the IC50 was 44.4 µM.

On to `CC[n+]1c(/C=C/C=C/c2ccc(N(C)C)cc2)sc2ccccc21`, for which the 50% inhibitory concentration (IC50) was 35.7 µM.

Regarding `CCC(C)N1CCC2(CC1)N=c1c(c3c4c5c(C)c(O)c3c(O)c1=NC(=O)C(C)=CC=C[C@H](C)[C@H](O)[C@@H](C)[C@@H](O)[C@@H](C)[C@H](OC(C)=O)[C@H](C)[C@@H](OC)C=CO[C@@](C)(O5)C4=O)N2` (some centres undefined), the concentration for half-maximal inhibition (IC50) is 9.09 µM.

Regarding `OC(CNCC1CCCO1)Cn1c2ccc(Cl)cc2c2cc(Cl)ccc21` (centres undefined), the IC50 was 38.8 µM.

For the molecule `CN1CCc2nc(SCC(=O)Nc3cccc(F)c3)c(C#N)c(-c3cccs3)c2C1`, the half-maximal inhibitory concentration (IC50) is 136 µM.

For the molecule `N#C/C(=C\c1ccc[nH]1)C(=O)NC1CC1`, the 50% inhibitory concentration (IC50) was 63.7 µM.

As to `COc1cc(/C=C2/C(=O)NN(c3ccc(F)cc3)C2=O)cc([N+](=O)[O-])c1O`, the IC50 was 34.7 µM.

Take `Cc1cc(NC(=O)c2ccccc2)sc1C`: the IC50 was 84.3 µM.

Take `CC(C)Oc1ccc(Cc2cnc(N)nc2N)cc1`: the IC50 is 50.3 µM.

On to `C#CCOCCOCCOCCNc1nc(N2CCN(C(=O)[C@H](Cc3ccc(O)cc3)n3cc([C@@H](N)CC(C)C)nn3)CC2)nc(N2CCN(C(=O)[C@H](Cc3ccc(O)cc3)n3cc([C@@H](N)CC(C)C)nn3)CC2)n1`, for which the 50% inhibitory concentration (IC50) is 112 µM.

Take `Cc1cc(C)n(-c2nc(NCCN(C)C)c3c4c(sc3n2)CCCC4)n1`: the concentration for half-maximal inhibition (IC50) is 99.4 µM.

Regarding `O=C(N/N=C/c1ccc(O)cc1O)C(=O)N/N=C/c1ccc(O)cc1O`, the 50% inhibitory concentration (IC50) was 108 µM.

For the molecule `c1ccc2cc(CSCc3nc4ccccc4[nH]3)ccc2c1`, the concentration for half-maximal inhibition (IC50) is 103 µM.

On to `O=C1OCC(CO)(CO)N=C1NNc1ccc(Cl)c(Cl)c1`, for which the concentration for half-maximal inhibition (IC50) was 26.1 µM.

In the case of `CCN(CCNCC(O)COc1ccccc1C(C)C)c1cccc(C)c1` (centres undefined), the half-maximal inhibitory concentration (IC50) was 72.6 µM.

On to `Oc1ccc(/C=N/Nc2nccnc2Cl)c(O)c1`, for which the half-inhibitory concentration (IC50) is 65.8 µM.

As for `C#CCOCCOCCOCCNc1nc(N2CCN(C(=O)CCCCCCCCCCNC(=O)[C@H]([C@@H](C)CC)n3cc(CCCCN=C(N)N)nn3)CC2)nc(N2CCN(C(=O)CCCCCCCCCCNC(=O)[C@H](CCCCN)n3cc(C)nn3)CC2)n1`, the IC50 is 69.3 µM.

As for `N=c1n(CC(=O)c2ccc(Br)s2)c2ccccc2n1Cc1ccccc1`, the IC50 was 47.2 µM.

In the case of `O=C(N/N=C/c1ccc([N+](=O)[O-])o1)C1CCCC1`, the concentration for half-maximal inhibition (IC50) is 37.7 µM.

Take `COc1cccc(C=NCC(C)N=Cc2cccc(OC)c2O)c1O` (centres undefined): the IC50 is 74.1 µM.

Consider `COc1cccc(NC2=NC3(CCCCC3)N=C(N)N2)c1`, for which the half-maximal inhibitory concentration (IC50) was 147 µM.

In the case of `Oc1[nH]c2ccccc2c1N=NC(=S)N1CCOCC1`, the IC50 is 17.4 µM.

Turning to `O=C(c1ccccc1)c1c2c(cc3sc4ccccc4[n+]13)-c1cccc3cccc-2c13`, the IC50 was 77.3 µM.

Take `Nc1c(Cl)ncnc1N/N=C/c1ccccn1`: the IC50 was 33.4 µM.

In the case of `Cc1ccc(OCC(=O)N/N=C/c2ccc([N+](=O)[O-])o2)cc1`, the IC50 was 28.6 µM.

For the molecule `N/C(=N\OS(=O)(=O)c1ccc(Cl)cc1)c1cccnc1`, the 50% inhibitory concentration (IC50) was 91.3 µM.

In the case of `NC1=NC[C@H](Cc2ccc(O)cc2)N1CCC12CC3CC(CC(C3)C1)C2`, the IC50 is 95 µM.

Consider `CN(CC(=O)Nc1ccc(F)c(F)c1F)c1cnccn1`, for which the IC50 is 108 µM.

On to `Oc1ccc(CN2CCCc3ccccc32)c2cccnc12`, for which the IC50 was 36.1 µM.

With `Cc1ccc(C(=O)N/C(=C\c2ccc(-c3ccc(Br)cc3)o2)C(=O)NCCCN(C)C)cc1`, the IC50 was 66.3 µM.

Turning to `Cc1ccc(NC(=O)CSC(N)=O)cc1Cl`, the IC50 was 33.4 µM.

With `Cc1cccc(OCC(O)Cn2c(=N)n(CCN3CCCCC3)c3ccccc32)c1` (centres undefined), the half-inhibitory concentration (IC50) was 50.2 µM.

Take `Oc1cc(Cl)ccc1Oc1ccc(Cl)cc1Cl`: the concentration for half-maximal inhibition (IC50) was 0.369 µM.

On to `c1ccc(Nc2nc(NCC3CCCO3)c3ccccc3n2)cc1` (centres undefined), for which the half-maximal inhibitory concentration (IC50) was 16.8 µM.

On to `C=CCNc1ncnc2c1[nH]c1ccc(C)cc12`, for which the IC50 is 56.3 µM.

`O=C1c2ccccc2C2=Nc3ccccc3SC(c3ccccc3F)C12` (centres undefined): the IC50 is 21 µM.

For `CCOc1ccc(Nc2nc(NCC3CCCO3)c3ccccc3n2)cc1` (centres undefined), the IC50 was 14.2 µM.

Turning to `OC1(c2ccc(Cl)cc2)CCN(Cc2c[nH]c3ccccc23)CC1`, the IC50 is 101 µM.

Turning to `CN(C)CCCNc1cc(C(C)(C)C)nc2c(-c3ccccc3)cnn12`, the IC50 is 75.7 µM.

In the case of `NC1=C(Br)C(=O)c2ccccc2C1=O`, the IC50 was 20.1 µM.

For the molecule `O=C(Cc1cccs1)N/N=C\c1ccc([N+](=O)[O-])s1`, the IC50 is 20.1 µM.

Turning to `O=C(N/N=C/c1cc(Cl)cc(Cl)c1O)c1ccncc1`, the IC50 was 20.2 µM.

With `CN(C)CCCNc1c2ccccc2nc2ccccc12`, the IC50 is 64.3 µM.

`O=C(CSc1nc2ccccc2[nH]1)Nc1ccc(F)c(F)c1`: the IC50 was 46.9 µM.

Regarding `CSc1nc2cc(Oc3cccc(Cl)c3Cl)c(Cl)cc2[nH]1`, the IC50 is 57.8 µM.

As to `CCCCOc1ccc(CSC(=N)N)cc1Cl`, the IC50 is 31.9 µM.

Consider `C#CCOCCOCCOCCNc1nc(N2CCN(C(=O)[C@H](Cc3cc4ccccc4[nH]3)n3cc([C@@H](N)C(C)CC)nn3)CC2)nc(N2CCN(C(=O)[C@H](Cc3cc4ccccc4[nH]3)n3cc([C@@H](N)Cc4ccc(O)cc4)nn3)CC2)n1` (some centres undefined), for which the IC50 is 60 µM.

Take `Cc1ccc(C(=O)N/N=C\c2sccc2C)cn1`: the half-inhibitory concentration (IC50) is 128 µM.

Regarding `Nc1nc2ccccc2n1CCOc1ccccc1Cl`, the half-inhibitory concentration (IC50) is 63.1 µM.

On to `COc1ccc(NC(=O)c2cc(Br)c(Br)s2)cn1`, for which the IC50 was 23.3 µM.

Regarding `CC(=O)NC(=S)NNC(=O)c1ccc(Br)cc1`, the IC50 was 33.8 µM.

`CCOC(=O)C1Nc2c(F)cc(C)cc2C2c3ccccc3CC12` (centres undefined): the half-maximal inhibitory concentration (IC50) is 136 µM.

For `CCCOc1ccc(S(=O)(=O)n2cc(F)c(=O)[nH]c2=O)cc1`, the 50% inhibitory concentration (IC50) was 42.2 µM.

`CSc1nc2ccc(Cl)cc2[nH]1`: the IC50 is 50.4 µM.

Consider `CCOC(=O)N1CCN(CCC(=O)c2ccc(Cl)cc2)CC1`, for which the IC50 was 108 µM.

Take `CCCCCCCCCCCCCCCC[N+](C)(C)CC`: the concentration for half-maximal inhibition (IC50) is 22.4 µM.

For `OC(CN1CCCCC1)Cn1c2ccccc2c2cc(Br)ccc21` (centres undefined), the IC50 was 81.9 µM.

As for `COc1cccc(/C=N/NC(=O)c2ccoc2C)c1O`, the 50% inhibitory concentration (IC50) was 88.1 µM.

As for `CC(NCc1ccccc1O)C12CC3CC(CC(C3)C1)C2` (centres undefined), the IC50 is 81.4 µM.

For `CO[C@@]1(NC(=O)C2SC(=C(C(N)=O)C(=O)O)S2)C(=O)N2C(C(=O)O)=C(CSc3nnnn3C)CS[C@@H]21` (some centres undefined), the IC50 is 13.1 µM.

For `COc1cc(Br)cc(C=Nc2cccc(C(F)(F)F)c2)c1O`, the IC50 is 69.4 µM.

Regarding `CCCCOc1ccc(C(=O)OC2CC(C)N(C)CC2C)cc1` (centres undefined), the IC50 is 41.7 µM.

Turning to `N/C(=N\N=C/c1ccc(F)cc1)N/N=C\c1ccc(F)cc1`, the half-maximal inhibitory concentration (IC50) was 75.1 µM.

With `Clc1ccc(CN2C3=NCCN3c3ccccc32)cc1`, the IC50 was 89.4 µM.

In the case of `CN1CC=C(/C=C/c2ccc(-c3ccccc3)cc2)CC1`, the half-maximal inhibitory concentration (IC50) was 95.2 µM.

For the molecule `O=C(/C=C/c1ccccc1Cl)Nc1cccc(O)c1`, the half-maximal inhibitory concentration (IC50) is 61.7 µM.

`Oc1c(Br)cc(Br)cc1C=Nc1ccc2[nH]ncc2c1`: the concentration for half-maximal inhibition (IC50) is 48.6 µM.

On to `Cc1c(Cl)cccc1Nc1nc(NCCO)c2ccccc2n1`, for which the half-inhibitory concentration (IC50) was 38.1 µM.

On to `COc1cc(/C=N/NC(=O)c2cncc(Br)c2)cc([N+](=O)[O-])c1O`, for which the half-inhibitory concentration (IC50) is under 0.23 µM.

With `NC1=NC[C@H](CC2CCCCC2)N1CCc1cc(C(F)(F)F)cc(C(F)(F)F)c1`, the IC50 was 37.6 µM.

In the case of `CCCCCC(=O)NNC(=S)NC(C)=O`, the 50% inhibitory concentration (IC50) was 22.9 µM.

In the case of `C#CCOCCOCCOCCNc1nc(N2CCN(C(=O)CCCCCCCCCCNC(=O)Cn3cc(CCCCCN)nn3)CC2)nc(N2CCN(C(=O)CCCCCCCCCCNC(=O)[C@H]([C@@H](C)CC)n3cc(CCCCCN)nn3)CC2)n1`, the IC50 is 71.3 µM.

Consider `Oc1cccc2ccc(Nc3ccccn3)nc12`, for which the IC50 is 11.6 µM.

On to `OC1CNCc2cc3c(cc21)OCCO3` (centres undefined), for which the IC50 was 80.8 µM.

Regarding `C=CCn1c(NS(=O)(=O)c2ccccc2)c(S(=O)(=O)c2ccc(C)cc2)c2nc3ccccc3nc21`, the IC50 is 135 µM.

Take `COc1ccc(/C=N/Nc2cc(C)nc3ccc(Br)cc23)cc1`: the IC50 is 46.2 µM.

With `Clc1ccc(C[n+]2cc(-c3ccc(Cl)cc3)n3c2CCC3)cc1`, the IC50 is 101 µM.

For `O=C(Nc1ccc2nc(-c3ccc(Br)o3)[nH]c2c1)c1ccco1`, the half-maximal inhibitory concentration (IC50) is 130 µM.

`O=C(Nc1cccnc1)c1cc(Br)c(Br)s1`: the IC50 was 134 µM.

`Cc1cc(NC(=O)c2ccc3[nH]c(C)c(C)c3c2)ccn1`: the IC50 was 144 µM.

`COc1ccc2nc(NC(=O)C3CC(=O)N(c4ccccc4)C3)sc2c1` (centres undefined): the half-inhibitory concentration (IC50) was 107 µM.
